Values of other authors as cited in US20090068264A1, “Clinical Applications of Tetrahydrobiopterin, Lipoic Acid and Their Salts and Methods of Preparing Tetrahydrobiopterin Bis-Lipoate” (ChronoRX LLC, priority 2005, published 2009).

Test system: cerebral ischemia-reperfusion
Conditions: animal studies of cerebral ischemia; after LA pretreatment; reduced from 78% without pretreatment

Structure (SMILES): O=C(O)CCCCC1CCSS1 (stereo not shown) [LA, 1,2-dithiolane-3-pentanoic acid]
- mortality rate during 24 hours of reperfusion: 26%
